{"source": "paper PMC467104", "about": "“Novel NO-TZDs and trimethoxychalcone-based DHPMs: design, synthesis, and biological evaluation as potential VEGFR-2 inhibitors” (Journal of Enzyme Inhibition and Medicinal Chemistry, 2024)", "molecular_target": "T1, VEGFR-2 (Homo sapiens, UniProt P35968)", "T1 construct": "gene KDR", "T1 sequence (P35968 20-1356)": "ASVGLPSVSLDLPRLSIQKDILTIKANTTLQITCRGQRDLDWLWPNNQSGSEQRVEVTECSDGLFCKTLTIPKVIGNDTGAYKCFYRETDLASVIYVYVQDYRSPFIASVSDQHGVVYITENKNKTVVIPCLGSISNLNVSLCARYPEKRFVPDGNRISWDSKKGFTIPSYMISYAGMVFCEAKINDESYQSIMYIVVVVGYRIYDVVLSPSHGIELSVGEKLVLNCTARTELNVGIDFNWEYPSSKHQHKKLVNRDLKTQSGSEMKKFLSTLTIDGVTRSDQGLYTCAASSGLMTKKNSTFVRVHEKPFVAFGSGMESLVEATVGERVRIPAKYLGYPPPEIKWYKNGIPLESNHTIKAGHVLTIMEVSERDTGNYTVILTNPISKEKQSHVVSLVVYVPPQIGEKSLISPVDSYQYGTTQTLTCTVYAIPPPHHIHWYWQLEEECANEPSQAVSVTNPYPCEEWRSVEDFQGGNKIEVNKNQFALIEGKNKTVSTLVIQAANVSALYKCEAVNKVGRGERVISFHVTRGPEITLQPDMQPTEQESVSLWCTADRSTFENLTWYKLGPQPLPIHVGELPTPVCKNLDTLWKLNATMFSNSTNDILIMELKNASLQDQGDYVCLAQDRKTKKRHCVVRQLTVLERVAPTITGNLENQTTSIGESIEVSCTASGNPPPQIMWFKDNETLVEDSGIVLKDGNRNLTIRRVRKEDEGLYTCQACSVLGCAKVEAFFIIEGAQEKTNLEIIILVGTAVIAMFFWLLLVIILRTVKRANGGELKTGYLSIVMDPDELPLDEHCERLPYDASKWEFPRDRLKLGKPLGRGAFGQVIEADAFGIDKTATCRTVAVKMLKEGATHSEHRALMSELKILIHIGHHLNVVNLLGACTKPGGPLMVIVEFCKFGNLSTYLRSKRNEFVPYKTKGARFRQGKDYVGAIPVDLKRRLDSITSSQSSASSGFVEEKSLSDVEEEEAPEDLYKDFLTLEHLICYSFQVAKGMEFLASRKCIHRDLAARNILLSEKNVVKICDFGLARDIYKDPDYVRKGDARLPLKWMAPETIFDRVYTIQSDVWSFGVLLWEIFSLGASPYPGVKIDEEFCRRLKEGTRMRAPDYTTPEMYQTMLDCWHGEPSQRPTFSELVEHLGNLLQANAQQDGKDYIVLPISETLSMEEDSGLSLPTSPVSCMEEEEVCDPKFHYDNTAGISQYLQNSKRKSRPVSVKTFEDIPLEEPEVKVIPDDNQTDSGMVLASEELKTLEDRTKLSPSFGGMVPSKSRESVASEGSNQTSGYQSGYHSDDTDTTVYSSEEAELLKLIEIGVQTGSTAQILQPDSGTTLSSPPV", "experiment": "BPS Bioscience KDR kinase assay (Kinase-Glo Max/ADP-Glo luminescence)", "assay_type": "biochemical", "data": [{"smiles": "CCOC(=O)C1=C(C)NC(SCC(=O)Nc2ccc(C(=O)/C=C/c3cc(OC)c(OC)c(OC)c3)cc2)=N[C@@H]1c1ccc(O)c(OC)c1", "note": "[CDHPM-10e, Ethyl (R,E)-4–(4-hydroxy-3-methoxyphenyl)-6-methyl-2-((2-oxo-2-((4–(3-(3,4,5-trimethoxyphenyl)acryloyl)phenyl)amino)ethyl)thio)-1,4-dihydropyrimidine-5-carboxylate]", "values": [{"measurement": "IC50", "result": 112, "unit": "nM"}]}]}
